In data set [1] the test system is U-937. The experiment in a line: Antiproliferative activity against human U-937 cells incubated for 72 hrs by CCK8 assay. In kind it is functional, cell-based. The note with it: U-937, 72 h.
The test system of data set [2] is HL-60. The experiment in a line: Antiproliferative activity against human HL-60 cells incubated for 72 hrs by CCK8 assay. The note with it: HL-60, 72 h. In kind it is functional, cell-based. For orientation: Tetrazolium dyes change colour on reduction, which living cells bring about.
Data set [3] can be described thus: Antiproliferative activity against human SKNO-1 cells incubated for 72 hrs by CCK8 assay. As to conditions: SKNO-1, 72 h. Format: functional, cell-based.
A further data set relates to Kasumi 1. In words: Antiproliferative activity against human Kasumi 1 cells incubated for 72 hrs by CCK8 assay. In kind it is functional, cell-based. The note with it: Kasumi 1, 72 h.
For a further data set, the target named is Histone deacetylase 4 (Homo sapiens, UniProt P56524). The experiment in a line: Inhibition of recombinant human HDAC4 using HDAC substrate incubated for 30 mins by fluorescence based assay.
Data set [4] concerns the target Cyclin-dependent kinase 5/CDK5 activator 1 (Homo sapiens) (UniProt Q00535+Q15078). The experiment in a line: Inhibition of CDK5/p25NCK (unknown origin) at 100 nM preincubated for 20 mins followed by [gamma-33P]ATP addition measured after 120 mins in presence of ATP by Hot-SpotSM kinase assay relative to control. As to conditions: time 140.0 min. Format: protein-complex assay.

Data set [5] concerns the target CDK6/cyclin D3 (Homo sapiens) (UniProt P30281+Q00534). The experiment in a line: Inhibition of CDK6/cyclinD3 (unknown origin) at 100 nM preincubated for 20 mins followed by [gamma-33P]ATP addition measured after 120 mins in presence of ATP by Hot-SpotSM kinase assay relative to control. Format: protein-complex assay. As to conditions: time 140.0 min.
For data set [6], the system named is HL-60. In words: Induction of apoptosis in human HL-60 cells assessed as early apoptotic cells at 1 uM incubated for 48 hrs by annexin V-FITC/PI satining based flow cytometry (reference value: 1.24 %). In kind it is functional. Background: Flow cytometry measures light scatter and fluorescence of single cells or particles in a stream.
For data set [7], the system named is HL-60. The experiment in a line: Induction of apoptosis in human HL-60 cells assessed as early apoptotic cells at 2 uM incubated for 48 hrs by annexin V-FITC/PI satining based flow cytometry (reference value: 1.24 %). Format: functional.
The subject of data set [8] is HL-60. The experiment in a line: Induction of apoptosis in human HL-60 cells assessed as late apoptotic cells at 1 uM incubated for 48 hrs by annexin V-FITC/PI satining based flow cytometry (reference value: 1.33 %). In kind it is functional.
In data set [9] the test system is U-937. The experiment in a line: Induction of apoptosis in human U-937 cells assessed as early apoptotic cells at 0.2 uM incubated for 48 hrs by annexin V-FITC/PI satining based flow cytometry (reference value: 0.945 %). Format: functional.
Data set [10] relates to U-937. The experiment in a line: Induction of apoptosis in human U-937 cells assessed as early apoptotic cells at 2 uM incubated for 48 hrs by annexin V-FITC/PI satining based flow cytometry (reference value: 0.945 %). Format: functional.
Data set [11] deals with U-937. In words: Induction of apoptosis in human U-937 cells assessed as late apoptotic cells at 0.5 uM incubated for 48 hrs by annexin V-FITC/PI satining based flow cytometry (reference value: 7.10 %). In kind it is functional.
The test system of data set [12] is U-937. The experiment in a line: Induction of apoptosis in human U-937 cells assessed as late apoptotic cells at 1 uM incubated for 48 hrs by annexin V-FITC/PI satining based flow cytometry (reference value: 7.10 %). Format: functional.
Data set [13] concerns U-937. The experiment in a line: Induction of apoptosis in human U-937 cells assessed as necrotic cells at 1 uM incubated for 48 hrs by annexin V-FITC/PI satining based flow cytometry (reference value: 1.96 %). Format: functional.
The subject of data set [14] is U-937. The experiment in a line: Inhibition of colony formation in human U-937 cells treated for 15 days by soft agar assay. In kind it is functional, cell-based. As to conditions: time 15.0 day.
In data set [15] the test system is HL-60. The experiment in a line: Inhibition of colony formation in human HL-60 cells treated for 15 days by soft agar assay. Format: functional, cell-based. As to conditions: time 15.0 day.
Data set [16] is described as follows: Half life in Sprague-Dawley rat at 5 mg/kg, iv measured upto 6 hrs by LC/MS-MS analysis. Format: ADME, organism-based. The note with it: in vivo.
The nature of data set [17]: Cytotoxicity against human Kasumi 1 cells assessed as CD34positive CD38negative leukemic stem cell-like cells sub-population at 1 uM incubated for 24 hrs by APC/FITC satining based flow cytometry (reference value: 96.8 %). Format: functional.
Data set [18] in a line: Cytotoxicity against human Kasumi 1 cells assessed as CD34positive CD38negative leukemic stem cell-like cells sub-population at 2 uM incubated for 24 hrs by APC/FITC satining based flow cytometry (reference value: 96.8 %). Format: functional.
A short description of data set [19]: MRT in Sprague-Dawley rat at 5 mg/kg, iv measured upto 6 hrs by LC/MS-MS analysis. Format: ADME, organism-based. The note with it: in vivo.
A short description of data set [20]: MRT in Sprague-Dawley rat at 25 mg/kg, po measured upto 8 hrs by LC/MS-MS analysis. In kind it is ADME, organism-based. As to conditions: in vivo.
Data set [21] is described as follows: AUC in Sprague-Dawley rat at 25 mg/kg, po measured upto 8 hrs by LC/MS-MS analysis. In kind it is ADME, organism-based. The arrangement: time < 8 hrs, dose 25 mg/kg, route po. As to conditions: in vivo.
The target in data set [22] is Cyclin-Y/Cyclin-dependent kinase 16 (Homo sapiens) (UniProt Q00536+Q8ND76). As to conditions: dose 100.0 nM, time 140.0 min.
Data set [23] has as its system HL-60. In words: Induction of apoptosis in human HL-60 cells assessed as viable cells at 0.6 uM incubated for 48 hrs by annexin V-FITC/PI satining based flow cytometry (reference value: 94.7 %). In kind it is functional. As to conditions: read-out: Activity.
In data set [24] the test system is HL-60. The experiment in a line: Induction of apoptosis in human HL-60 cells assessed as early apoptotic cells at 0.6 uM incubated for 48 hrs by annexin V-FITC/PI satining based flow cytometry (reference value: 2.4 %). In kind it is functional.
For data set [25], the system named is HL-60. In words: Induction of apoptosis in human HL-60 cells assessed as early apoptotic cells at 5 uM incubated for 48 hrs by annexin V-FITC/PI satining based flow cytometry (reference value: 2.4 %). In kind it is functional.
Data set [26] has as its system U-937. In words: Induction of apoptosis in human U-937 cells assessed as viable cells at 1.2 uM incubated for 48 hrs by annexin V-FITC/PI satining based flow cytometry (reference value: 93.7 %). In kind it is functional. The note with it: read-out: Activity.
In data set [27] the test system is U-937. In words: Induction of apoptosis in human U-937 cells assessed as early apoptotic cells at 5 uM incubated for 48 hrs by annexin V-FITC/PI satining based flow cytometry (reference value: 1.93 %). In kind it is functional.
Data set [28] has as its system HL-60. The experiment in a line: Induction of differentiation in human HL-60 cells assessed as increase in CD11b positive cells at 0.6 uM incubated for 24 hrs by FITC staining based flow cytometry (reference value: 1.12 %). In kind it is functional.
Data set [29] relates to HL-60. The experiment in a line: Induction of differentiation in human HL-60 cells assessed as increase in CD11b positive cells at 1.2 uM incubated for 24 hrs by FITC staining based flow cytometry (reference value: 1.12 %). In kind it is functional.
The subject of data set [30] is HL-60. The experiment in a line: Induction of differentiation in human HL-60 cells assessed as increase in CD11b positive cells at 2.5 uM incubated for 24 hrs by FITC staining based flow cytometry (reference value: 1.12 %). In kind it is functional.
Data set [31] relates to HL-60. In words: Induction of differentiation in human HL-60 cells assessed as increase in CD11b positive cells at 5 uM incubated for 24 hrs by FITC staining based flow cytometry (reference value: 1.12 %). Format: functional.
Data set [32] has as its system U-937. The experiment in a line: Induction of differentiation in human U-937 cells assessed as increase in CD11b positive cells at 1.2 uM incubated for 48 hrs by FITC staining based flow cytometry (reference value: […] %). Format: functional.
Data set [33] has as its system U-937. The experiment in a line: Induction of differentiation in human U-937 cells assessed as increase in CD11b positive cells at 2.5 uM incubated for 48 hrs by FITC staining based flow cytometry (reference value: […] %). Format: functional.

Consider two compounds from ChEMBL document CHEMBL5346903, “Discovery of novel and bioavailable histone deacetylases and cyclin-dependent kinases dual inhibitor to impair the stemness of leukemia cells” (Eur J Med Chem, 2023).

For orientation: IC50 means the concentration needed to halve the response being measured. A word on the inhibition: it is the share of the control response that was lost under treatment. By MRT is commonly meant the average time that molecules of a dose stay in the body. What is called AUC is concentration integrated over time.

Sequence of Histone deacetylase 4 (P56524 whole entry): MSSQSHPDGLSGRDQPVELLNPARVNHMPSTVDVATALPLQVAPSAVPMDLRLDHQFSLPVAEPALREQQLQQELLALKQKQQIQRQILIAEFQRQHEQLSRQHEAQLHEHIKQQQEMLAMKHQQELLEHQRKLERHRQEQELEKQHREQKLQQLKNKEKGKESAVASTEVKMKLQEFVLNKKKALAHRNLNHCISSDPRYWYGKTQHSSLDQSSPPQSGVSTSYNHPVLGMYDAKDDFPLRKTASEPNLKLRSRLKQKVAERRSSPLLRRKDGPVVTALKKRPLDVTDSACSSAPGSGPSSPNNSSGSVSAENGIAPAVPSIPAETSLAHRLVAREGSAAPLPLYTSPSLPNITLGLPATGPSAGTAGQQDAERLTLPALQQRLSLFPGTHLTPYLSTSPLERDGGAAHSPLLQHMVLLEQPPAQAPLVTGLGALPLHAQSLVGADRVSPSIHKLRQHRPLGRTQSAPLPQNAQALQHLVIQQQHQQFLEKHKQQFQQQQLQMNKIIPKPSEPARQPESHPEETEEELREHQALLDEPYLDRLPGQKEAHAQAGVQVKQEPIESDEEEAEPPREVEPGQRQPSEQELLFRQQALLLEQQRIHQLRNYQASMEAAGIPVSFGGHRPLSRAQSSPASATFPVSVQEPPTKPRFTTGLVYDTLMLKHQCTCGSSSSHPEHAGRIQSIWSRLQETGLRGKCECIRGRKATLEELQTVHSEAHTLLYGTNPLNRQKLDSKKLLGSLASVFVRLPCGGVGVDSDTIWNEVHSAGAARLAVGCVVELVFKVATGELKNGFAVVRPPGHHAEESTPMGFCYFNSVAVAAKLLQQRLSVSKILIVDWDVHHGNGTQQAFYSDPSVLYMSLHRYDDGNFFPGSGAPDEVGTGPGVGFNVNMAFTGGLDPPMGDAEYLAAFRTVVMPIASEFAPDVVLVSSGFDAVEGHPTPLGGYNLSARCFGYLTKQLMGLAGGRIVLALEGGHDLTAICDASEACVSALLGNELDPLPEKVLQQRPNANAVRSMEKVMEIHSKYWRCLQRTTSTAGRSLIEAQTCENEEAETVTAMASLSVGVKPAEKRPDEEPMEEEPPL
Sequence of Cyclin-dependent kinase 5/CDK5 activator 1 (Homo sapiens) (Q00535 whole entry): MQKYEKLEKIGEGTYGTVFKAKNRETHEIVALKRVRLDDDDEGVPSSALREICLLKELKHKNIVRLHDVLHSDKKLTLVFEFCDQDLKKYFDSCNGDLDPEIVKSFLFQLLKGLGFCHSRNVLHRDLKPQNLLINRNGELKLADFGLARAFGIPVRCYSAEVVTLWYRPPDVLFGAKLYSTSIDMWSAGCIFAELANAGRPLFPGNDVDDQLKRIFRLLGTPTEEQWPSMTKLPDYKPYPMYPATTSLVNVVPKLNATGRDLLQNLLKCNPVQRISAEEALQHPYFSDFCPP
Sequence of Cyclin-dependent kinase 5/CDK5 activator 1 (Homo sapiens) (Q15078 99-307 partner limits assumed): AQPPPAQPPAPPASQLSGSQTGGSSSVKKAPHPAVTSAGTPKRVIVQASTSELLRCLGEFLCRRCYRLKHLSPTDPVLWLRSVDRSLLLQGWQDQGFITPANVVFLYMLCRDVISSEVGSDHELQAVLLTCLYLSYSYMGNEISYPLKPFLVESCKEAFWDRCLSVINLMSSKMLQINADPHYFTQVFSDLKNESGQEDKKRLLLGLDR

`Nc1ccccc1NC(=O)c1ccc(NC(=O)c2n[nH]cc2NC(=O)c2c(Cl)cccc2Cl)cc1`: the IC50 with U-937 [1] was 720 nM; in the data set with HL-60 [2], 1430 nM; in data set [3], 1.63 µM; in the data set on Kasumi 1, 890 nM; on Histone deacetylase 4 it was greater than 1000 nM. Further, the inhibition in [4] is 95.2%; in data set [5], 21.4%; in the data set on U-937 [14] it was “Dose-Dependent Effect”; with HL-60 [15], “Dose-Dependent Effect”; in data set [22] it was 35.4%. The Activity was found to be 17% in the data set with HL-60 [6]; 35.4% in the data set with HL-60 [7]; 39% in the data set with HL-60 [8]; 1.56% in the data set with U-937 [9]; 2.14% with U-937 [10]; 14% in the data set on U-937 [11]. The Activity in the data set with U-937 [12] turned out to be 34.1%; with U-937 [13], 15.1%; in data set [17], 35.3%; in [18], 28.1%. In data set [16], this compound had a t1/2 of 6.6 min. For the same compound, the MRT in data set [19] was determined as 23.4 min; in data set [20], 1.27 h. Further, the AUC in data set [21] came to 2368 ng·h/mL.

For `Nc1cc(F)ccc1NC(=O)c1ccc(CNC(=O)/C=C/c2cccnc2)cc1` [TUCIDINOSTAT], the IC50 was 4660 nM in the data set on U-937 [1], 3110 nM with HL-60 [2], 5.57 µM in [3] and greater than 10000 nM in the data set with Kasumi 1. The viability at 0.6 µM in the data set with HL-60 [23] came to 95.1%. Also, the Activity stood at 2.52% in the data set on HL-60 [24]; 8.11% with HL-60 [25]; 4.66% in the data set with U-937 [27]; 24.4% with HL-60 [28]; 51% with HL-60 [29]; 53.5% with HL-60 [30]. Further, the Activity in the data set on HL-60 [31] was found to be 71.1%; in the data set on U-937 [32] it was 5%; with U-937 [33], 5.59%. In addition, in the data set with U-937 [26], the viability at 1.2 µM was determined as 90.3%. Further, the inhibition entry in the data set with U-937 [14] and with HL-60 [15] was “Dose-Dependent Effect” in each case.
